# From patent US20250214932A1, “T-TYPE CALCIUM CHANNEL MODULATORS COMPRISING AN AZASPIRONONANE CORE AND METHODS OF USE THEREOF” (Praxis Precision Medicines, Inc., priority 2022, published 2025)
# Read-outs that look alike come from different tables or passages of the source.
# Target: Human Cav3.1 (Homo sapiens (Human), UniProt O43497)
# Assay: Human Cav3.1 calcium channel patch clamp assay (SyncroPatch 384PE, HEK-293 natClytin/TASK1+Cav3.1 cell line)
# Type: cell-based
# Experimental: Pulse generation and data collection were performed with PatchController384 V1.3.0 and DataController384 V1.2.1 (Nanion Technologies). Off-line analysis was performed using Excel and Graphpad Prism (V 8.4.2) with complete data files uploaded to Dotmatics. The access resistance and apparent membrane capacitance were estimated using built-in protocols. Current was recorded in whole cell configuration from a population of cells. The cells were lifted, triturated, and resuspended at 800,000 cells/ml. The cells were allowed to recover in the cell hotel prior to experimentation. Currents were recorded at room temperature. The external solution contained the following (in mM): NaCl 80, NMDG 60, KCl 4, MgCl2 1, CaCl2 6, glucose 5 and HEPES 10 (pH=7.4, Osmolarity ˜300 mOsm). The extracellular solution was used as the wash, reference and compound delivery solution. […] The compound plate was created at 2× concentrated in the extracellular solution. The compound was diluted to 1:2 when added to the recording well. The amount of DMSO in the extracellular solution was held constant at the level used for the highest tested concentration. For the voltage clamp experiments on Cav3.1, data were sampled at 10 KHz. After establishment of the seal and the passage in the whole cell configuration, the cells were held at −120 mV. Cav3.1 current was evoked using a 100 ms step to −20 mV (to measure resting state block), followed by a 1600 ms step to −65 mV and a second 100 ms step to −20 mV (to measure voltage dependent block). The voltage protocol was applied every 15 seconds in the absence and in the presence of the compounds under investigation. […] Current amplitude (pA) was measured in the peak 1 and 2. The average of last 3 sweeps of each liquid period (vehicle, compound under investigation, full block) was calculated. Nickel-sensitive current was used to calculate the % of inhibition in the presence of the compound under investigation.
# Pulse generation and data collection were performed with PatchController384 V1.3.0 and DataController384 V1.2.1 (Nanion Technologies). Off-line analysis was performed using Excel and Graphpad Prism (V 8.4.2) with complete data files uploaded to Dotmatics. The access resistance and apparent membrane capacitance were estimated using built-in protocols. Current was recorded in whole cell configuration from a population of cells.
# The cells were lifted, triturated, and resuspended at 800,000 cells/ml. The cells were allowed to recover in the cell hotel prior to experimentation. Currents were recorded at room temperature. The external solution contained the following (in mM): NaCl 80, NMDG 60, KCl 4, MgCl2 1, CaCl2 6, glucose 5 and HEPES 10 (pH=7.4, Osmolarity ˜300 mOsm). The extracellular solution was used as the wash, reference and compound delivery solution.
# The compound plate was created at 2× concentrated in the extracellular solution. The compound was diluted to 1:2 when added to the recording well. The amount of DMSO in the extracellular solution was held constant at the level used for the highest tested concentration. For the voltage clamp experiments on Cav3.1, data were sampled at 10 KHz. After establishment of the seal and the passage in the whole cell configuration, the cells were held at −120 mV. Cav3.1 current was evoked using a 100 ms step to −20 mV (to measure resting state block), followed by a 1600 ms step to −65 mV and a second 100 ms step to −20 mV (to measure voltage dependent block). The voltage protocol was applied every 15 seconds in the absence and in the presence of the compounds under investigation. […] Current amplitude (pA) was measured in the peak 1 and 2. The average of last 3 sweeps of each liquid period (vehicle, compound under investigation, full block) was calculated. Nickel-sensitive current was used to calculate the % of inhibition in the presence of the compound under investigation.
# [1] = voltage dependent block (VDB), read-out: Cav3.1 (VDB) IC50
# [2] = patch clamp, HEK-293 natClytin/TASK1+Cav3.1 cells, class symbols, read-out: Human Cav3.1 IC50
# Sequence of Human Cav3.1 (O43497 whole entry): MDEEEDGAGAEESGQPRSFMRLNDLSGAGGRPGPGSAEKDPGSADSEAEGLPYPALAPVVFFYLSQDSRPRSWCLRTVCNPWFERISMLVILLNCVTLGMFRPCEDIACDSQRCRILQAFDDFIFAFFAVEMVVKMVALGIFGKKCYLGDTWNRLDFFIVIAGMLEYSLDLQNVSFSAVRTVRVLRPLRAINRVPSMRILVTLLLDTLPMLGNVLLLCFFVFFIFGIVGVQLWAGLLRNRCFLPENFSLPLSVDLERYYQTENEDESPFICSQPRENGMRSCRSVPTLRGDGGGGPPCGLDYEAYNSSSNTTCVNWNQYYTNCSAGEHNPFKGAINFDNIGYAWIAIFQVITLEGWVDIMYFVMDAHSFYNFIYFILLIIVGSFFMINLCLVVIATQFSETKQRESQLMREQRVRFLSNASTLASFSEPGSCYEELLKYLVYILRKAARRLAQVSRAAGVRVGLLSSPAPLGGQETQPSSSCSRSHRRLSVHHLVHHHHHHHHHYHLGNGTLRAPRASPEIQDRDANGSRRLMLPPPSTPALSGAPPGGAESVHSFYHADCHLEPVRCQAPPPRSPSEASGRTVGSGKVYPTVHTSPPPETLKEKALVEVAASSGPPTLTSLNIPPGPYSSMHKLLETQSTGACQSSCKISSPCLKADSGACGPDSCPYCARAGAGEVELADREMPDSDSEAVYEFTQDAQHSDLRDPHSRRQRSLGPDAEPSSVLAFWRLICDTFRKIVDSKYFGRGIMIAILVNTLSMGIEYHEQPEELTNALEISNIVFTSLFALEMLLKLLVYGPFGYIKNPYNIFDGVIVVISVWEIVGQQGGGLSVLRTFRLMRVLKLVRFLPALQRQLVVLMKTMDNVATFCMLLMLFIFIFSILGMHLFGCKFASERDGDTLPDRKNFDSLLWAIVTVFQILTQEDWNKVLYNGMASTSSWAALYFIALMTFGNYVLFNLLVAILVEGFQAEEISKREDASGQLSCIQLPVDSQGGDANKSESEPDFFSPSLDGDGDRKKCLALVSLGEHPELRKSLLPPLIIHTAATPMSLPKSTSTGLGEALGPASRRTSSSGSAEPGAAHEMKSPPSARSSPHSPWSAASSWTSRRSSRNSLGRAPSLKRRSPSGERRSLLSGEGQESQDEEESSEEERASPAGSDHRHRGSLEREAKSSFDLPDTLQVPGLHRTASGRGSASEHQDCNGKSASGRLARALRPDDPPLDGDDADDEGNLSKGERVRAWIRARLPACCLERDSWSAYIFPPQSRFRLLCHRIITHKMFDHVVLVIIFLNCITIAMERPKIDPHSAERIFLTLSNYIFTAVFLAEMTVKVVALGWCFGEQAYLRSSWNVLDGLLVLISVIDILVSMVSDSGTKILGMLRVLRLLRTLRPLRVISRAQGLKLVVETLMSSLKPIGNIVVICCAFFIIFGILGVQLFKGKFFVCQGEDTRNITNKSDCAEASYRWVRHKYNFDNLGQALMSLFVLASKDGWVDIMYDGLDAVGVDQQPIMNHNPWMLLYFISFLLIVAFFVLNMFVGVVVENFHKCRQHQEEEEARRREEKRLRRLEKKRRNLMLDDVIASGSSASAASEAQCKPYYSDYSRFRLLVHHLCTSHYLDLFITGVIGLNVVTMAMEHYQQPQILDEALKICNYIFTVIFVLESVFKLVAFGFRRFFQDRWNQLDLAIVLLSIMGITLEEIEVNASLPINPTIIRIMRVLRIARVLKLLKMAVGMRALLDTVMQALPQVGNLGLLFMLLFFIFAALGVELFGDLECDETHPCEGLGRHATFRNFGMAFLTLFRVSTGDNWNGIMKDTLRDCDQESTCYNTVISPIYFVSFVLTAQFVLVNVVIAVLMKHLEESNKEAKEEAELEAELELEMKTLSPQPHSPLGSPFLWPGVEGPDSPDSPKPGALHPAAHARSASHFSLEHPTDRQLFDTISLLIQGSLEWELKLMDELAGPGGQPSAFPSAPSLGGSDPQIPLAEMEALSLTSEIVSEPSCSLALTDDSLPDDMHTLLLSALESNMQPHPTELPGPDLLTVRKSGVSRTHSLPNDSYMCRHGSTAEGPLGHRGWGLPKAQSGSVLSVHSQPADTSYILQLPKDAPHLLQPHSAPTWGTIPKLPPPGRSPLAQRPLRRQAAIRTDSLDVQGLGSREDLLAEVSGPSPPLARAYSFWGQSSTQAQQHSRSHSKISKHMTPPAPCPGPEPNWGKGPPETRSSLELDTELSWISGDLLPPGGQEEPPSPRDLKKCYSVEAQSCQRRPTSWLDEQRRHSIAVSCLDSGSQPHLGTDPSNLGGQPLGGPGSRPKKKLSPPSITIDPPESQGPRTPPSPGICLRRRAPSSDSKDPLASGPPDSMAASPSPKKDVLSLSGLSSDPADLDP
IC50 [1],IC50 [2],SMILES
597 nM,,CC(C)(C)S(=O)(=O)CCN1CC2(CCC(C(=O)Nc3cc(F)cc(Cl)c3)CC2)C1 [Example 95]
855 nM,,CC(C)(C)S(=O)(=O)CCN1CC2(CCC(C(=O)Nc3cc(F)cc(C(F)F)c3)CC2)C1 [Example 87]
427 nM,,N#CC1(CN2CC3(CCC(C(=O)Nc4cc(F)cc(Cl)c4)CC3)C2)CCC(F)(F)CC1 [Example 107]
1370 nM,,N#CC1(CN2CC3(CCC(C(=O)Nc4cc(F)cc(Cl)c4)CC3)C2)CCOCC1 [Example 139]
804 nM,,Cc1cc(F)cc(C(=O)NCC2CCC3(CC2)CN(CC(=O)NC(C)(C)C)C3)c1 [Example 144]
1070 nM,,O=C(CN1CC2(CCC(C(=O)Nc3ccc(Cl)c(F)c3)CC2)C1)NC1(C(F)(F)F)CC1 [Example 120]
522 nM,,O=C(CN1CC2(CCC(C(=O)Nc3cc(F)cc(Cl)c3)CC2)C1)NC1(C(F)(F)F)COC1 [Example 89]
283 nM,,O=C(CN1CC2(CCC(C(=O)Nc3cc(F)cc(Cl)c3)CC2)C1)NC1(C(F)F)CC1 [Example 140]
588 nM,,COc1cc(NC(=O)C2CCC3(CC2)CN(CC(=O)NC2(C(F)(F)F)CC2)C3)ccc1F [Example 125]
588 nM,,CC1(C)CCC(=O)N1CCN1CC2(CCC(C(=O)Nc3cc(F)cc(C(F)F)c3)CC2)C1 [Example 71]
576 nM,,O=C(Nc1cc(F)cc(Cl)c1)C1CCC2(CC1)CN(CCS(=O)(=O)c1ccccc1)C2 [Example 91]
302 nM,,O=C(CN1CC2(CCC(C(=O)Nc3cccc(Cl)c3)CC2)C1)NC1(C(F)(F)F)CC1 [Example 104]
664 nM,,N#CC1(CN2CC3(CCC(C(=O)NCc4cc(F)cc(Cl)c4)CC3)C2)CCCCC1 [Example 131]
364 nM,,O=C(CN1CC2(CCC(C(=O)Nc3cccc(OC(F)F)c3)CC2)C1)NC1(C(F)(F)F)CC1 [Example 108]
688 nM,,O=C(NC12CCC(CC1)CC2)C1CCC2(CC1)CN(CC1(F)CCC(F)(F)CC1)C2 [Example 149]
606 nM,,O=C(NC12CCC(CC1)CC2)C1CCC2(CC1)CN(CC1(O)CCC(F)(F)CC1)C2 [Example 155]
1080 nM,,COc1cccc(NC(=O)C2CCC3(CC2)CN(CC(=O)NC(C)(C)C)C3)c1 [Example 75]
< 78.2 nM,,COc1cc(Cl)cc(NC(=O)C2CCC3(CC2)CN(CC(=O)NC2(C(F)(F)F)CC2)C3)c1 [Example 160]
432 nM,,N#CC1(CN2CC3(CCC(C(=O)Nc4cc(F)cc(OC(F)F)c4)CC3)C2)CCCCC1 [Example 133]
492 nM,,O=C(CN1CC2(CCC(C(=O)Nc3ccc(F)c(C(F)F)c3)CC2)C1)NC1(C(F)(F)F)CC1 [Example 127]
400 nM,,Cc1cc(NC(=O)C2CCC3(CC2)CN(CC(=O)NC2(C(F)(F)F)CC2)C3)ccc1F [Example 132]
802 nM,,COc1cc(F)cc(NC(=O)C2CCC3(CC2)CN(CC(F)(F)C2CCCCC2)C3)c1 [Example 90]
1130 nM,,CCOc1cccc(NC(=O)C2CCC3(CC2)CN(CC(=O)NC2(C(F)(F)F)CC2)C3)c1 [Example 114]
905 nM,,O=C(Nc1cc(F)cc(C(F)F)c1)C1CCC2(CC1)CN(CC(F)(F)C1CCCCC1)C2 [Example 92]
1070 nM,,O=C(Nc1cc(F)cc(Cl)c1)C1CCC2(CC1)CN(CC(F)(F)C1CCCC1)C2 [Example 78]
645 nM,,O=C(Nc1cc(F)cc(C(F)F)c1)C1CCC2(CC1)CN(CC(F)C1CCCC1)C2 (stereo not drawn) [Example 93]
159 nM,,COc1cc(Cl)cc(NC(=O)C2CCC3(CC2)CN(CC(=O)NC(C)(C)C)C3)c1 [Example 159]
110 nM,,COc1cc(F)cc(NC(=O)C2CCC3(CC2)CN(CC(=O)NC2(C(F)(F)F)CCC2)C3)c1 [Example 84]

# The next lines start with the compound.
SMILES,IC50 [1],IC50 [2]
CC(C)(C)NC(=O)CN1CC2(CCC(C(=O)Nc3cc(F)cc(OC(F)F)c3)CC2)C1 [Example 7],118 nM,< 1000 nM
CC1(C(=O)NCCN2CC3(CCC(C(=O)Nc4cc(F)cc(C(F)F)c4)CC3)C2)CCC1 [Example 53],447 nM,
O=C(CN1CC2(CCC(C(=O)Nc3cc(F)cc(Cl)c3)CC2)C1)NC1CCCC1 [Example 21],< 78.2 nM,< 1000 nM
CC(C)(C)NC(=O)CN1CC2(CCC(C(=O)Nc3cccc(C(F)F)c3)CC2)C1 [Example 62],511 nM,
CC(C)(NC(=O)CN1CC2(CCC(C(=O)Nc3cc(F)cc(C(F)F)c3)CC2)C1)C(F)(F)F [Example 30],192 nM,< 1000 nM
O=C(Nc1cc(F)cc(Cl)c1)C1CCC2(CC1)CN(Cc1cccc(C(F)F)c1)C2 [Example 19],624 nM,< 1000 nM
CC(C)(C)NC(=O)CN1CC2(CCC(C(=O)Nc3cc(F)cc(C(F)F)c3)CC2)C1 [Example 9],78.5 nM,< 1000 nM
O=C(Nc1cc(F)cc(Cl)c1)C1CCC2(CC1)CN(Cc1cccc(C(F)(F)F)c1)C2 [Example 24],890 nM,< 1000 nM
CC1(NC(=O)CN2CC3(CCC(C(=O)Nc4cc(F)cc(Cl)c4)CC3)C2)CCC1 [Example 12],112 nM,< 1000 nM
O=C(Nc1cc(F)cc(Cl)c1)C1CCC2(CC1)CN(Cc1ccc(F)cc1)C2 [Example 14],612 nM,< 1000 nM
"CCC(C)(C)NC(=O)CN1CC2(CCC(C(=O)Nc3cc(F)cc(Cl)c3)CC2)C1 [Example 10, N-(3-chloro-5-fluorophenyl)-2-(2-oxo-2-(tert-pentylamino)ethyl)-2-azaspiro[3.5]nonane-7-carboxamide]",142 nM,< 1000 nM
CC(C)(C)NC(=O)CN1CC2(CCC(C(=O)Nc3ccc(Cl)cc3)CC2)C1 [Example 3],724 nM,< 1000 nM
CC(C)(C)ONC(=O)CN1CC2(CCC(C(=O)Nc3cc(F)cc(Cl)c3)CC2)C1 [Example 67],580 nM,
CCC(C)(C)N(C)C(=O)CN1CC2(CCC(C(=O)Nc3cc(F)cc(C(F)F)c3)CC2)C1 [Example 34],199 nM,< 1000 nM
O=C(Nc1cc(F)cc(Cl)c1)C1CCC2(CC1)CN(CCC1CCC(F)(F)CC1)C2 [Example 13],239 nM,< 1000 nM
COCCNC(=O)CN1CC2(CCC(C(=O)Nc3cc(F)cc(Cl)c3)CC2)C1 [Example 18],,1000 to 10000 nM
CC(C)(C)NC(=O)CN1CC2(CCC(C(=O)Nc3cccc(Cl)c3)CC2)C1 [Example 39],294 nM,
O=C(CN1CC2(CCC(C(=O)Nc3cc(F)cc(C(F)F)c3)CC2)C1)NC1CCCC1 [Example 32],139 nM,< 1000 nM
CC1(CCN2CC3(CCC(C(=O)Nc4cc(F)cc(C(F)F)c4)CC3)C2)CCC1 [Example 43],300 nM,
CC(C)(C)c1coc(CN2CC3(CCC(C(=O)Nc4cc(F)cc(Cl)c4)CC3)C2)n1 [Example 20],988 nM,< 1000 nM
O=C(Nc1cc(F)cc(C(F)F)c1)C1CCC2(CC1)CN(CC(=O)N1CCOCC1)C2 [Example 41],846 nM,
O=C(CN1CC2(CCC(C(=O)Nc3cc(F)cc(Cl)c3)CC2)C1)OC1CCCC1 [Example 57],709 nM,
O=C(Nc1cc(F)cc(Cl)c1)C1CCC2(CC1)CN(CCC1CCCC1)C2 [Example 17],182 nM,< 1000 nM
CC(C)(CCN1CC2(CCC(C(=O)Nc3cc(F)cc(C(F)F)c3)CC2)C1)C(F)(F)F [Example 36],327 nM,< 1000 nM
CC1(OC(=O)CN2CC3(CCC(C(=O)Nc4cc(F)cc(Cl)c4)CC3)C2)CC1 [Example 64],617 nM,
